Measured values: US20170210738A1, “GLUCOSE TRANSPORT INHIBITORS” (Bayer Pharma Aktiengesellschaft, priority 2014, published 2017)

Each compound was assayed against T1, GLUT1 (Homo sapiens, UniProt P11166) (assay: Indirect measurement of GLUT activity by quantification of intracellular ATP levels: glucose induced ATP increase (GLUT1 inhibition)). Details: DLD1 cells; 1 mM glucose, 1 uM Rotenone, 15 min; CellTiter-Glo ATP levels; IC50 values standardized to cytochalasin B IC50 values; read-out: IC50 regarding glucose induced ATP increase (GLUT1 inhibition).
T1 construct: endogenous in cells; host or cells: DLD1 or CHO-K1
T1 sequence (P11166 1-492): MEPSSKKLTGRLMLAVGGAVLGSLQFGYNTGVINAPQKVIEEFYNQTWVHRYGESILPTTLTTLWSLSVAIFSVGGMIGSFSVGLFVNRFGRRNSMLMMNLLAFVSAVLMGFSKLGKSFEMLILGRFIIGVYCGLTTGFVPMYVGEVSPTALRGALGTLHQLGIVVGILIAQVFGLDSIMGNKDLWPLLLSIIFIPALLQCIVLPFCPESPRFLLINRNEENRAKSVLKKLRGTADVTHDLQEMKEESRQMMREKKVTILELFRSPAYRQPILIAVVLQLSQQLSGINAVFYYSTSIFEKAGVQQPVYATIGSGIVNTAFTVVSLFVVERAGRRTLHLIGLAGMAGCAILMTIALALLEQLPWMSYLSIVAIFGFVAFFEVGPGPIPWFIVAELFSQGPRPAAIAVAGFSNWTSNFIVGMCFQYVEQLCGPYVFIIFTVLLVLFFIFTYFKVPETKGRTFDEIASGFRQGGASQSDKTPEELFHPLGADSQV
Assay type: cell-based
Excerpt: Indirect Measurement of GLUT Activity by Quantification of Intracellular ATP Levels
It is well known that a combination of small-molecule inhibitors of mitochondrial electron transport chain and glucose catabolism synergistically suppress ATP production and impair cellular viability (Ulanovskaya et al., 2008, 2011; Liu, et al. 2001). We therefore used DLD1 or CHO-K1 cells in combination with an oxidative phosphorylation inhibitor to identify GLUT inhibitors. Cell lines were maintained in DMEM medium supplemented with 10% FCS and 1% Penicillin-Streptomycin solution and 2% Glutamax. The cells were treated with trypsin and seeded into 384 plates at a density of 4000 cells/well. The cells were then cultured overnight in glucose free media containing 1% FCS to reduce intracellular ATP levels. After 24 h the cells were incubated at 37° C. containing the appropriate glucose or in case of GLUT2 fructose concentration (1 mM and 30 mM respectively) with or without compounds and 1 uM Rotenone for 15 min. The CellTiter-Glo® Luminescent Cell Viability Assay from Promega was then used to measure ATP levels. Compounds able to reduce the ATP levels within 15 min of glucose application were considered to be glucose uptake inhibitors.

IC50	SMILES
6.5 nM	Cc1c(NC(=O)c2cc(C(N)=O)nc3cc(F)c(Cl)cc23)cnn1Cc1ccc(C#N)cc1 [Example 25, 6-chloro-N^4-[1-(4-cyanobenzyl)-5-methyl-1H-pyrazol-4-yl]-7-fluoroquinoline-2,4-dicarboxamide]
349 nM	Cc1c(NC(=O)c2cc(C(N)=O)nc3ccccc23)cnn1CC1CCCCC1 [Example 28, N^4-[1-(cyclohexylmethyl)-5-methyl-1H-pyrazol-4-yl]quinoline-2,4-dicarboxamide]
940 nM	CC(C)c1c(NC(=O)c2cc(C(N)=O)nc3cc(F)ccc23)cnn1Cc1ccc(C#N)cc1 [Example 33, N^4-[1-(4-cyanobenzyl)-5-isopropyl-1H-pyrazol-4-yl]-7-fluoroquinoline-2,4-dicarboxamide]
173 nM	Cc1c(NC(=O)c2cc(C(F)(F)F)nc3ccc(Br)cc23)cnn1Cc1ccccc1C#N [Example 14, 6-bromo-N-[1-(2-cyanobenzyl)-5-methyl-1H-pyrazol-4-yl]-2-(trifluoromethyl)quinoline-4-carboxamide]
517 nM	Cc1nc(Cn2ncc(NC(=O)c3cc(C(N)=O)nc4ccccc34)c2C)cs1 [Example 39, N^4-{5-methyl-1-[(2-methyl-1,3-thiazol-4-yl)methyl]-1H-pyrazol-4-yl}quinoline-2,4-dicarboxamide]
1070 nM	COC(=O)c1c(NC(=O)c2cc(C(F)(F)F)nc3ccc(Br)cc23)cnn1Cc1ccc(C#N)cc1 [Example 19, methyl 4-({[6-bromo-2-(trifluoromethyl)quinolin-4-yl]carbonyl}amino)-1-(4-cyanobenzyl)-1H-pyrazole-5-carboxylate]
2220 nM	CNC(=O)c1nc(Cn2ncc(NC(=O)c3cc(C(N)=O)nc4ccccc34)c2C)no1 [Example 36, N^4-(5-methyl-1-{[5-(methylcarbamoyl)-1,2,4-oxadiazol-3-yl]methyl}-1H-pyrazol-4-yl)quinoline-2,4-dicarboxamide]
615 nM	CCS(=O)(=O)N1CCC(Cn2ncc(NC(=O)c3cc(C(F)(F)F)nc4ccc(Br)cc34)c2C)CC1 [Example 38, 6-bromo-N-(1-{[1-(ethylsulfonyl)piperidin-4-yl]methyl}-5-methyl-1H-pyrazol-4-yl)-2-(trifluoromethyl)quinoline-4-carboxamide]
4 nM	COc1ccc(Cn2ncc(NC(=O)c3cc(C(F)(F)F)nc4ccc(Br)cc34)c2C)cc1 [Example 12, 6-bromo-N-[1-(4-methoxybenzyl)-5-methyl-1H-pyrazol-4-yl]-2-(trifluoromethyl)quinoline-4-carboxamide]
2.2 nM	COc1ccc(Cn2ncc(NC(=O)c3cc(C(N)=O)nc4ccccc34)c2C)cc1 [Example 13, N^4-[1-(4-methoxybenzyl)-5-methyl-1H-pyrazol-4-yl]quinoline-2,4-dicarboxamide]
387 nM	N#Cc1ccc(Cn2ncc(NC(=O)c3cc(C(F)(F)F)nc4ccc(Br)cc34)c2C(N)=O)cc1 [Example 22, 6-bromo-N-[5-carbamoyl-1-(4-cyanobenzyl)-1H-pyrazol-4-yl]-2-(trifluoromethyl)quinoline-4-carboxamide]
2150 nM	Cc1c(NC(=O)c2cc(C(N)=O)nc3ccccc23)cnn1Cc1ccncc1 [Example 29, N^4-[5-methyl-1-(pyridin-4-ylmethyl)-1H-pyrazol-4-yl]quinoline-2,4-dicarboxamide]
8.9 nM	Cc1c(NC(=O)c2cc(C(N)=O)nc3ccccc23)cnn1Cc1ccc(C#N)cc1 [Example 9, N^4-[1-(4-cyanobenzyl)-5-methyl-1H-pyrazol-4-yl]quinoline-2,4-dicarboxamide]
124 nM	Cc1c(NC(=O)c2cc(C(F)(F)F)nc3cc(F)c(F)cc23)cnn1Cc1ccc(F)cc1 [Example 2, 6,7-difluoro-N-[1-(4-fluorobenzyl)-5-methyl-1H-pyrazol-4-yl]-2-(trifluoromethyl)quinoline-4-carboxamide]
1250 nM	NC(=O)c1c(NC(=O)c2cc(C(F)(F)F)nc3ccc(Br)cc23)cnn1Cc1ccc(F)cc1 [Example 18, 6-bromo-N-[5-carbamoyl-1-(4-fluorobenzyl)-1H-pyrazol-4-yl]-2-(trifluoromethyl)quinoline-4-carboxamide]
43 nM	CCc1c(NC(=O)c2cc(C(N)=O)nc3cc(F)c(Cl)cc23)cnn1Cc1ccc(C#N)cc1 [Example 32, 6-chloro-N^4-[1-(4-cyanobenzyl)-5-ethyl-1H-pyrazol-4-yl]-7-fluoroquinoline-2,4-dicarboxamide]
18 nM	Cc1c(NC(=O)c2cc(C(N)=O)nc3ccccc23)cnn1Cc1ccc(F)cc1 [Example 5, N^4-[1-(4-fluorobenzyl)-5-methyl-1H-pyrazol-4-yl]quinoline-2,4-dicarboxamide]
46 nM	CCc1c(NC(=O)c2cc(C(N)=O)nc3cc(F)ccc23)cnn1Cc1ccc(C#N)cc1 [Example 30, N^4-[1-(4-cyanobenzyl)-5-ethyl-1H-pyrazol-4-yl]-7-fluoroquinoline-2,4-dicarboxamide]
201 nM	CCc1c(NC(=O)c2cc(C(N)=O)nc3ccccc23)cnn1Cc1ccc(C#N)cc1 [Example 31, N^4-[1-(4-cyanobenzyl)-5-ethyl-1H-pyrazol-4-yl]quinoline-2,4-dicarboxamide]
10200 nM	N#Cc1ccc(Cn2ncc(NC(=O)c3cc(C(F)(F)F)nc4ccc(Br)cc34)c2C(=O)O)cc1 [Example 20, 4-({[6-bromo-2-(trifluoromethyl)quinolin-4-yl]carbonyl}amino)-1-(4-cyanobenzyl)-1H-pyrazole-5-carboxylic acid]
284 nM	Cc1nc(Cn2ncc(NC(=O)c3cc(C(F)(F)F)nc4ccc(Br)cc34)c2C)cs1 [Example 41, 6-bromo-N-{5-methyl-1-[(2-methyl-1,3-thiazol-4-yl)methyl]-1H-pyrazol-4-yl}-2-(trifluoromethyl)quinoline-4-carboxamide]
2.9 nM	Cc1c(NC(=O)c2cc(C3CC3)nc3ccc(Br)cc23)cnn1Cc1ccc(C#N)cc1 [Example 23, 6-bromo-N-[1-(4-cyanobenzyl)-5-methyl-1H-pyrazol-4-yl]-2-cyclopropylquinoline-4-carboxamide]
95 nM	Cc1c(NC(=O)c2cc(C(N)=O)nc3ccccc23)cnn1Cc1ccc(F)c(F)c1 [Example 26, N^4-[1-(3,4-difluorobenzyl)-5-methyl-1H-pyrazol-4-yl]quinoline-2,4-dicarboxamide]
12 nM	Cc1c(NC(=O)c2cc(C(F)(F)F)nc3ccc(Br)cc23)cnn1Cc1ccc(F)cc1 [Example 4, 6-bromo-N-[1-(4-fluorobenzyl)-5-methyl-1H-pyrazol-4-yl]-2-(trifluoromethyl)quinoline-4-carboxamide]
755 nM	Cc1c(NC(=O)c2cc(C(N)=O)nc3ccccc23)cnn1Cc1ccccc1C#N [Example 15, N^4-[1-(2-cyanobenzyl)-5-methyl-1H-pyrazol-4-yl]quinoline-2,4-dicarboxamide]
396 nM	CCS(=O)(=O)N1CCC(Cn2ncc(NC(=O)c3cc(C(N)=O)nc4ccccc34)c2C)CC1 [Example 43, N^4-(1-{[1-(ethylsulfonyl)piperidin-4-yl]methyl}-5-methyl-1H-pyrazol-4-yl)quinoline-2,4-dicarboxamide]
753 nM	Cc1c(NC(=O)c2cc(C(N)=O)nc3ccccc23)cnn1Cc1ccn(C)n1 [Example 34, N^4-{5-methyl-1-[(1-methyl-1H-pyrazol-3-yl)methyl]-1H-pyrazol-4-yl}quinoline-2,4-dicarboxamide]
